Source: ChEMBL document CHEMBL5303573, “Mapping human microbiome drug metabolism by gut bacteria and their genes” (Nature, 2019)

Legend:
[1] = bacteroides fragilis, 12 h, 2 µM
Description: The drug is tested on Bacteroides fragilis strain: DS-208 for biotransformation. The drug concentrations were measured before and after a 12-h incubation by liquid-chromatography-coupled mass spectrometry (LC–MS)

[2] = The drug is tested on Bacteroides caccae strain: ATCC43185 for biotransformation. The drug concentrations were measured before and after a 12-h incubation by liquid-chromatography-coupled mass spectrometry (LC–MS); settings: 2 µM
[3] = The drug is tested on Anaerotruncus colihominis strain: DSM17241 for biotransformation. The drug concentrations were measured before and after a 12-h incubation by liquid-chromatography-coupled mass spectrometry (LC–MS); settings: 2 µM
[4] = The drug is tested on Collinsella aerofaciens strain: ATCC25986 for biotransformation. The drug concentrations were measured before and after a 12-h incubation by liquid-chromatography-coupled mass spectrometry (LC–MS); settings: 2 µM
[5] = The drug is tested on Parabacteroides merdae strain: ATCC43184 for biotransformation. The drug concentrations were measured before and after a 12-h incubation by liquid-chromatography-coupled mass spectrometry (LC–MS); settings: 2 µM
[6] = The drug is tested on Bacteroides cellulosilyticus strain: DSM14838 for biotransformation. The drug concentrations were measured before and after a 12-h incubation by liquid-chromatography-coupled mass spectrometry (LC–MS); settings: 2 µM
[7] = bacteroides intestinalis, 12 h, 2 µM
Description: The drug is tested on Bacteroides intestinalis strain: DSM17393 for biotransformation. The drug concentrations were measured before and after a 12-h incubation by liquid-chromatography-coupled mass spectrometry (LC–MS)

[8] = The drug is tested on Ruminococcus lactaris strain: ATCC29176 for biotransformation. The drug concentrations were measured before and after a 12-h incubation by liquid-chromatography-coupled mass spectrometry (LC–MS); settings: 2 µM
[9] = The drug is tested on Clostridium scindens strain: ATCC35704 for biotransformation. The drug concentrations were measured before and after a 12-h incubation by liquid-chromatography-coupled mass spectrometry (LC–MS); settings: 2 µM
[10] = The drug is tested on Ruminococcus torques strain: ATCC27756 for biotransformation. The drug concentrations were measured before and after a 12-h incubation by liquid-chromatography-coupled mass spectrometry (LC–MS); type: ADME; set-up: dose 2 uM, timepoint 0 vs 12 hours; settings: 2 µM
[11] = bifidobacterium adolescentis, 12 h, 2 µM
Description: The drug is tested on Bifidobacterium adolescentis strain: ATCC 15703 for biotransformation. The drug concentrations were measured before and after a 12-h incubation by liquid-chromatography-coupled mass spectrometry (LC–MS)

[12] = The drug is tested on Dorea formicigenerans strain: ATCC27755 for biotransformation. The drug concentrations were measured before and after a 12-h incubation by liquid-chromatography-coupled mass spectrometry (LC–MS); settings: 2 µM
[13] = bacteroides thetaiotaomicron, 12 h, 2 µM
Description: The drug is tested on Bacteroides thetaiotaomicron strain: VPI-5482 for biotransformation. The drug concentrations were measured before and after a 12-h incubation by liquid-chromatography-coupled mass spectrometry (LC–MS)

[14] = The drug is tested on Bifidobacterium longum subsp. Infantis strain: CCUG52486 for biotransformation. The drug concentrations were measured before and after a 12-h incubation by liquid-chromatography-coupled mass spectrometry (LC–MS); settings: 2 µM
[15] = The drug is tested on Ruminococcus gnavus strain: ATCC29149 for biotransformation. The drug concentrations were measured before and after a 12-h incubation by liquid-chromatography-coupled mass spectrometry (LC–MS); settings: mediterraneibacter gnavus, 2 µM
[16] = The drug is tested on Bifidobacterium ruminantium strain: fecal isolate for biotransformation. The drug concentrations were measured before and after a 12-h incubation by liquid-chromatography-coupled mass spectrometry (LC–MS); settings: 2 µM
[17] = anaerostipes sp., 12 h, 2 µM
Description: The drug is tested on Anaerostipes sp. strain: fecal isolate for biotransformation. The drug concentrations were measured before and after a 12-h incubation by liquid-chromatography-coupled mass spectrometry (LC–MS)

[18] = parabacteroides johnsonii, 12 h, 2 µM
Description: The drug is tested on Parabacteroides johnsonii strain: DSM18315 for biotransformation. The drug concentrations were measured before and after a 12-h incubation by liquid-chromatography-coupled mass spectrometry (LC–MS)

[19] = The drug is tested on Clostridium sp. strain: fecal isolate for biotransformation. The drug concentrations were measured before and after a 12-h incubation by liquid-chromatography-coupled mass spectrometry (LC–MS); settings: 2 µM
[20] = The drug is tested on Bacteroides vulgatus strain: ATCC8482 for biotransformation. The drug concentrations were measured before and after a 12-h incubation by liquid-chromatography-coupled mass spectrometry (LC–MS); settings: phocaeicola vulgatus, 2 µM

Measured: Bacterial Biotransformation

COc1ccccc1OCC(O)CN1CCN(CC(=O)Nc2c(C)cccc2C)CC1 (stereo not given) [RANOLAZINE]
Compound NOT metabolized: [1] | [2] | [3] | [4] | [5] | [6] | [7] | [8] | [9] | [10] | [11] | [12] | [13] | [14] | [15] | [16] | [17] | [18] | [19] | [20]
